For orientation: IC50 means the concentration that gives 50% inhibition.

This passage reports IC50 results from patent publication US11932658B2 (BRISTOL-MYERS SQUIBB COMPANY, priority 2016, dated 2024).

Molecules are shown by their SMILES.

The test has as its target T1, PAR4 (Homo sapiens, UniProt Q96RI0).
T1 construct: expressed in transfected cells; host or cells: HEK293 PAR4 Clone 1.2A (BMS Arctic ID 383940)
T1 sequence (Q96RI0 18-385): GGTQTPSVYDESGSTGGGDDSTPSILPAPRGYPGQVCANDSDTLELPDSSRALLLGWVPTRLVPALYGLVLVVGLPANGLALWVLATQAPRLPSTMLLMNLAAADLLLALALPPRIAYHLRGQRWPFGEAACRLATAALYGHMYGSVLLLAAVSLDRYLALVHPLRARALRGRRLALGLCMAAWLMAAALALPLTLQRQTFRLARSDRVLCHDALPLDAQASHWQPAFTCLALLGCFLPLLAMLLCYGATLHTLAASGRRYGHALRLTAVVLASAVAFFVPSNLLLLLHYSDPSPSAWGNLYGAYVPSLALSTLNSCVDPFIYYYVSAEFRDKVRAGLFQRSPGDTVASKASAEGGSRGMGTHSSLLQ
The experiment in a line: PAR4 FLIPR assay (antagonism of agonist peptide-induced calcium mobilization). It is filed as cell-based. The gist of the method: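 Antagonism was taken as block of calcium mobilization evoked by the agonist peptide H-Ala-Phe(4-F)-Pro-Gly-Trp-Leu-Val-Lys-Asn-[…]-NH2, added after 30 min room-temperature compound preincubation in dye-loaded PAR4-transfected HEK293 cells (endogenous PAR1). Fluorescence was read on FDSS, with compound addition alone used as the agonist counter-screen; values come from 11-point concentration-response curves.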
For the compound `COc1cnc2c(-c3nc4c(C)cc5c(c4s3)OCC(COC(=O)Nc3ccc(Oc4ccccc4)nc3)O5)cc(C)cc2n1` (stereo not drawn) [Example 121, (2-(2-methoxy-7-methylquinoxalin-5-yl)-4-methyl-7,8-dihydro-[1,4]dioxino [2′,3′:3,4]benzo[1,2-d]thiazol-7-yl)methyl (6-phenoxypyridin-3-yl)carbamate], the IC50 was found to be 8.2 nM.

`COc1cnc2c(-c3nc4c(C)cc5c(c4s3)OCC(COC(=O)Nc3cnc(F)c(C)c3)O5)cc(C)cc2n1` (stereo not drawn) [Example 122, (2-(2-methoxy-7-methylquinoxalin-5-yl)-4-methyl-7,8-dihydro-[1,4]dioxino[2′,3′:3,4]benzo [1,2-d]thiazol-7-yl)methyl (6-fluoro-5-methylpyridin-3-yl)carbamate]: the half-inhibitory concentration (IC50) worked out at 2.5 nM.

With `COc1cnc2c(-c3nc4c(C)cc5c(c4s3)OCC(COC(=O)Nc3ccc(O)nc3)O5)cc(C)cc2n1` (stereo not drawn) [Example 123, (2-(2-methoxy-7-methylquinoxalin-5-yl)-4-methyl-7,8-dihydro-[1,4]dioxino[2′,3′:3,4]benzo [1,2-d]thiazol-7-yl)methyl (6-hydroxypyridin-3-yl)carbamate], the 50% inhibitory concentration (IC50) came to 18 nM.

As to `COc1cnc2c(-c3nc4c(C)cc5c(c4s3)OCC(COC(=O)Nc3cncc(C)c3)O5)cc(C)cc2n1` (stereo not drawn) [Example 124, (2-(2-methoxy-7-methylquinoxalin-5-yl)-4-methyl-7,8-dihydro-[1,4]dioxino[2′,3′:3,4]benzo[1,2-d]thiazol-7-yl)methyl (5-methylpyridin-3-yl)carbamate], the IC50 is 3.2 nM.

Consider `COc1cnc2c(-c3nc4c(C)cc5c(c4s3)OCC(COC(=O)Nc3ccc(-c4ccccc4)nc3)O5)cc(C)cc2n1` (stereo not drawn) [Example 125, (2-(2-methoxy-7-methylquinoxalin-5-yl)-4-methyl-7,8-dihydro-[1,4]dioxino[2′,3′:3,4]benzo[1,2-d]thiazol-7-yl)methyl (6-phenylpyridin-3-yl)carbamate], for which the IC50 amounted to 35 nM.

In the case of `COc1cnc2c(-c3nc4c(C)cc5c(c4s3)OCC(COC(=O)Nc3cncc(-c4ccccc4)c3)O5)cc(C)cc2n1` (stereo not drawn) [Example 126, (2-(2-methoxy-7-methylquinoxalin-5-yl)-4-methyl-7,8-dihydro-[1,4]dioxino[2′,3′:3,4]benzo[1,2-d]thiazol-7-yl)methyl (5-phenylpyridin-3-yl)carbamate], the IC50 stood at 67 nM.

Regarding `COc1cnc2c(-c3nc4c(C)cc5c(c4s3)OCC(COC(=O)Nc3ccc(-c4cccs4)nc3)O5)cc(C)cc2n1` (stereo not drawn) [Example 127, (2-(2-methoxy-7-methylquinoxalin-5-yl)-4-methyl-7,8-dihydro-[1,4]dioxino[2′,3′:3,4]benzo[1,2-d]thiazol-7-yl)methyl (6-(thiophen-2-yl)pyridin-3-yl) carbamate], the IC50 is 130 nM.

For the compound `COc1cnc2c(-c3nc4c(C)cc5c(c4s3)OCC(COC(=O)Nc3ccc(OCCN(C)C)nc3)O5)cc(C)cc2n1` (stereo not drawn) [Example 128, (2-(2-methoxy-7-methylquinoxalin-5-yl)-4-methyl-7,8-dihydro-[1,4]dioxino[2′,3′:3,4]benzo[1,2-d]thiazol-7-yl)methyl (6-(2-(dimethylamino)ethoxy)pyridin-3-yl)carbamate], the IC50 came out at 4 nM.

In the case of `COc1cnc2c(-c3nc4c(C)cc5c(c4s3)OCC(COC(=O)Nc3cnc4c(c3)ncn4C)O5)cc(C)cc2n1` (stereo not drawn) [Example 129, (2-(2-methoxy-7-methylquinoxalin-5-yl)-4-methyl-7,8-dihydro-[1,4]dioxino[2′,3′:3,4]benzo[1,2-d]thiazol-7-yl)methyl (3-methyl-3H-imidazo [4,5-b]pyridin-6-yl)carbamate], the IC50 is 1.6 nM.

In the case of `COc1cnc2c(-c3nc4c(C)cc5c(c4s3)OCC(COC(=O)Nc3ccc(-n4cnc(C)n4)nc3)O5)cc(C)cc2n1` (stereo not drawn) [Example 130, (2-(2-methoxy-7-methylquinoxalin-5-yl)-4-methyl-7,8-dihydro-[1,4]dioxino[2′,3′:3,4]benzo[1,2-d]thiazol-7-yl)methyl (6-(3-methyl-1H-1,2,4-triazol-1-yl)pyridin-3-yl)carbamate], the 50% inhibitory concentration (IC50) was found to be 1.5 nM.

For `COc1cnc2c(-c3nc4c(C)cc5c(c4s3)OCC(COC(=O)Nc3ccc(C(F)(F)F)nc3)O5)cc(C)cc2n1` (stereo not drawn) [Example 131, (2-(2-methoxy-7-methylquinoxalin-5-yl)-4-methyl-7,8-dihydro-[1,4]dioxino[2′,3′:3,4]benzo[1,2-d]thiazol-7-yl)methyl (6-(trifluoromethyl)pyridin-3-yl)carbamate], the concentration for half-maximal inhibition (IC50) was 2 nM.

On to `COc1cnc2c(-c3nc4c(C)cc5c(c4s3)OCC(COC(=O)Nc3cncc(Cl)c3)O5)cc(C)cc2n1` (stereo not drawn) [Example 132, (2-(2-methoxy-7-methylquinoxalin-5-yl)-4-methyl-7,8-dihydro-[1,4]dioxino[2′,3′:3,4]benzo[1,2-d]thiazol-7-yl)methyl (5-chloropyridin-3-yl)carbamate], for which the IC50 was found to be 3.9 nM.

Take `CCOc1ccc(NC(=O)OCC2COc3c(cc(C)c4nc(-c5cc(C)cc6nc(OC)cnc56)sc34)O2)cn1` (stereo not drawn) [Example 133, (2-(2-methoxy-7-methylquinoxalin-5-yl)-4-methyl-7,8-dihydro-[1,4]dioxino[2′,3′:3,4]benzo[1,2-d]thiazol-7-yl)methyl (6-ethoxypyridin-3-yl)carbamate]: the IC50 amounted to 150 nM.

On to `COC(=O)c1cc(NC(=O)OCC2COc3c(cc(C)c4nc(-c5cc(C)cc6nc(OC)cnc56)sc34)O2)ccn1` (stereo not drawn) [Example 134, methyl 4-((((2-(2-methoxy-7-methylquinoxalin-5-yl)-4-methyl-7,8-dihydro-[1,4]dioxino[2′,3′:3,4]benzo[1,2-d]thiazol-7-yl)methoxy)carbonyl)amino) picolinate], for which the IC50 amounted to 3.3 nM.

As for `COc1cnc2c(-c3nc4c(C)cc5c(c4s3)OCC(COC(=O)Nc3cncc(C(F)(F)F)c3)O5)cc(C)cc2n1` (stereo not drawn) [Example 135], the IC50 worked out at 1.4 nM.

For the compound `COc1cnc2c(-c3nc4c(C)cc5c(c4s3)OCC(COC(=O)Nc3ccc(N4CCN(C(=O)OC(C)(C)C)CC4)nc3)O5)cc(C)cc2n1` (stereo not drawn) [Example 136, tert-butyl 4-(5-((((2-(2-methoxy-7-methylquinoxalin-5-yl)-4-methyl-7,8-dihydro-[1,4]dioxino[2′,3′:3,4]benzo[1,2-d]thiazol-7-yl)methoxy)carbonyl)amino)pyridin-2-yl) piperazine-1-carboxylate], the IC50 is 210 nM.

On to `COc1cnc2c(-c3nc4c(C)cc5c(c4s3)OCC(COC(=O)Nc3ccc(N4CCCC4)nc3)O5)cc(C)cc2n1` (stereo not drawn) [Example 137, (2-(2-methoxy-7-methylquinoxalin-5-yl)-4-methyl-7,8-dihydro-[1,4]dioxino[2′,3′:3,4]benzo[1,2-d]thiazol-7-yl)methyl (6-(pyrrolidin-1-yl)pyridin-3-yl)carbamate], for which the half-maximal inhibitory concentration (IC50) was 6.1 nM.

On to `COC(=O)c1cncc(NC(=O)OCC2COc3c(cc(C)c4nc(-c5cc(C)cc6nc(OC)cnc56)sc34)O2)c1` (stereo not drawn) [Example 138, methyl 5-((((2-(2-methoxy-7-methylquinoxalin-5-yl)-4-methyl-7,8-dihydro-[1,4]dioxino[2′,3′:3,4]benzo[1,2-d]thiazol-7-yl)methoxy)carbonyl)amino)nicotinate], for which the IC50 was determined as 3.4 nM.

Take `COc1cnc2c(-c3nc4c(C)cc5c(c4s3)OCC(COC(=O)Nc3cnc4c(c3)CN(C(=O)OC(C)(C)C)CC4)O5)cc(C)cc2n1` (stereo not drawn) [Example 139, tert-butyl 3-((((2-(2-methoxy-7-methylquinoxalin-5-yl)-4-methyl-7,8-dihydro-[1,4]dioxino[2′,3′:3,4]benzo[1,2-d]thiazol-7-yl)methoxy)carbonyl)amino)-7,8-dihydro-1,6-naphthyridine-6(5H)-carboxylate]: the IC50 is 2.1 nM.

For `COc1cnc2c(-c3nc4c(C)cc5c(c4s3)OCC(COC(=O)Nc3ccc(NC(C)=O)nc3)O5)cc(C)cc2n1` (stereo not drawn) [Example 140, (2-(2-methoxy-7-methylquinoxalin-5-yl)-4-methyl-7,8-dihydro-[1,4]dioxino[2′,3′:3,4]benzo[1,2-d]thiazol-7-yl)methyl (6-acetamidopyridin-3-yl)carbamate], the IC50 worked out at 230 nM.

For `COc1cnc2c(-c3nc4c(C)cc5c(c4s3)OCC(COC(=O)Nc3ccc(N)nc3)O5)cc(C)cc2n1` (stereo not drawn) [Example 141, (2-(2-methoxy-7-methylquinoxalin-5-yl)-4-methyl-7,8-dihydro-[1,4]dioxino[2′,3′:3,4]benzo[1,2-d]thiazol-7-yl)methyl (6-aminopyridin-3-yl)carbamate], the 50% inhibitory concentration (IC50) is 170 nM.

Take `COc1cnc2c(-c3nc4c(C)cc5c(c4s3)OCC(COC(=O)Nc3cnc4[nH]ccc4c3)O5)cc(C)cc2n1` (stereo not drawn) [Example 142, (2-(2-methoxy-7-methylquinoxalin-5-yl)-4-methyl-7,8-dihydro-[1,4]dioxino[2′,3′:3,4]benzo[1,2-d]thiazol-7-yl)methyl 1H-pyrrolo[2,3-b]pyridin-5-ylcarbamate]: the IC50 turned out to be 2.9 nM.

Turning to `COCc1cnc2c(-c3nc4cc5c(cc4s3)OCO5)cc(C)cc2n1` [Example 143, 6-(2-(methoxymethyl)-7-methylquinoxalin-5-yl)-[1,3]dioxolo[4′,5′:4,5]benzo[1,2-d]thiazole], the IC50 stood at 5.5 nM.

With `COc1cnc2c(-c3nc4ccc5c(c4s3)C[C@H](COC(=O)Nc3cnc(C)nc3)O5)cc(C)cc2n1` [Example 144, (R)-(2-(2-methoxy-7-methylquinoxalin-5-yl)-7,8-dihydrobenzofuro[5,4-d]thiazol-7-yl)me thyl (2-methylpyrimidin-5-yl)carbamate], the half-maximal inhibitory concentration (IC50) worked out at 1.2 nM.
